Reference: patent US20100197663A1, “METHOD AND COMPOSITIONS FOR TREATMENT OF PAINFUL DISORDERS” (RODLEN LABORATORIES, INC., priority 2004, published 2010)

Columns and labels:
[1] = tested on: widespread pain in the neck, back and arms associated with fibromyalgia; assay: Case report: patient with fibromyalgia pain, oral treatment at H.S.; assay type: in vivo, human; settings: person; analgesic taken by itself, before combination treatment
[2] = tested on: widespread pain in the neck, shoulders, arms and legs; assay: Case report: patient with widespread pain, headaches, non-restorative sleep and fatigue, oral treatment at H.S.; assay type: in vivo, human; settings: person; before combination treatment

SMILES: CC(=O)Nc1ccc(O)cc1 [acetaminophen]
- response of pain to analgesic by itself [1]: unresponsive

SMILES: CC(=O)Oc1ccccc1C(=O)O [aspirin]
- response of pain to analgesic by itself [1]: unresponsive

SMILES: CC(C)Cc1ccc(C(C)C(=O)O)cc1 (stereo not drawn) [ibuprofen]
- response of pain to analgesic alone [2]: unresponsive
